According to US20150045610A1, “METHOD OF MODIFYING SPERMATOGENESIS, SPERMIOGENESIS AND/OR FERTILITY IN MAMMALS” (Monell Chemical Senses Center, priority 2012, published 2015):
≈ marks a conversion by molar mass, not a printed value.

What was measured:
PDE 8 = settings: read-out: IC50, PDE 8; cited from earlier work
PDE 1 = settings: cited from earlier work
humanized mhT1R3 = biological target: T1, humanized mhT1R3 (Homo sapiens, UniProt Q7RTX0, A109T/A120V/A176D/A197V/A198V/A228S/A231N/A248T/A280V/A282S/A302S/A412V/A417V/A46T/A537T/C375D/D124S/D249S/D250G/D364H/D419E/D470T/D491G/D88A/DEL352-352/DEL488-489/E172D/E199T/E203N/E217D/E356N/E45S/E481Q/E505D/E525K/E545Q/F540P/F555L/G168S/G205S/G311T/G314N/G355L/G360D/G414H/G438R/G439D/G463S/G50T/G542N/H261R/H278R/H281Y/H332P/I485M/I536F/INS376MLQNLSSG/K32Q/K339E/K422L/K494V/K86G/L173R/L245Q/L272V/L29F/L354S/L385Q/L433M/L458M/L483S/L71F/L74M/M151L/M315I/M318V/M31A/N285S/N386L/N532H/N68L/P112S/P246H/P335S/P416H/P420H/P441T/P60I/Q221E/Q257L/Q317R/Q330L/Q336H/Q359L/Q372R/Q418S/Q504K/Q531K/R123Q/R247D/R252Q/R291G/R30K/R357A/R443Q/R467V/R473T/R479Q/R482Q/R486Y/R498Q/R52N/R550K/R553A/R556P/R560K/R56Q/S251Q/S267K/S289H/S290H/S392A/S446A/S447E/S464P/S477T/S490P/S53Q/S559P/S58N/S67P/T195Q/T346A/T377L/T390I/T434S/T480L/T63N/V152I/V277A/V366M/V36I/V381L/V393T/V437A/V465T/V61P/W72L); test: T1R3 pharmacological block with clofibrate diet (male reproduction); assay type: in vivo, mouse; settings: clofibrate diet 300 mg/kg body weight, line 7c and WT males
T1 construct: the extracellular domain is of mouse origin and the transmembrane and intracellular domains of human origin; mouse T1R3 extracellular domain (fusion partner replacing the human extracellular domain); expressed in transfected cells; host or cells: transgenic Line 7c mice (T1R3-/-, Gus-/-, mhT1R3+/-)
T1 sequence (Q7RTX0 with tags, fused parts or gaps L29F/R30K/M31A/K32Q/V36I/E45S/A46T/G50T/R52N/S53Q/R56Q/S58N/P60I/V61P/T63N/S67P/N68L/L71F/W72L/L74M/K86G/D88A/A109T/P112S/A120V/R123Q/D124S/M151L/V152I/G168S/E172D/L173R/A176D/T195Q/A197V/A198V/E199T/E203N/G205S/E217D/Q221E/A228S/A231N/L245Q/P246H/R247D/A248T/D249S/D250G/S251Q/R252Q/Q257L/H261R/S267K/L272V/V277A/H278R/A280V/H281Y/A282S/N285S/S289H/S290H/R291G/A302S/G311T/G314N/M315I/Q317R/M318V/Q330L/H332P/P335S/Q336H/K339E/T346A/DEL352-352/L354S/G355L/E356N/R357A/Q359L/G360D/D364H/V366M/Q372R/C375D/INS376MLQNLSSG/T377L/V381L/L385Q/N386L/T390I/S392A/V393T/A412V/G414H/P416H/A417V/Q418S/D419E/P420H/K422L/L433M/T434S/V437A/G438R/G439D/P441T/R443Q/S446A/S447E/L458M/G463S/S464P/V465T/R467V/D470T/R473T/S477T/R479Q/T480L/E481Q/R482Q/L483S/I485M/R486Y/DEL488-489/S490P/D491G/K494V/R498Q/Q504K/E505D/E525K/Q531K/N532H/I536F/A537T/F540P/G542N/E545Q/R550K/R553A/F555L/R556P/S559P/R560K limits assumed): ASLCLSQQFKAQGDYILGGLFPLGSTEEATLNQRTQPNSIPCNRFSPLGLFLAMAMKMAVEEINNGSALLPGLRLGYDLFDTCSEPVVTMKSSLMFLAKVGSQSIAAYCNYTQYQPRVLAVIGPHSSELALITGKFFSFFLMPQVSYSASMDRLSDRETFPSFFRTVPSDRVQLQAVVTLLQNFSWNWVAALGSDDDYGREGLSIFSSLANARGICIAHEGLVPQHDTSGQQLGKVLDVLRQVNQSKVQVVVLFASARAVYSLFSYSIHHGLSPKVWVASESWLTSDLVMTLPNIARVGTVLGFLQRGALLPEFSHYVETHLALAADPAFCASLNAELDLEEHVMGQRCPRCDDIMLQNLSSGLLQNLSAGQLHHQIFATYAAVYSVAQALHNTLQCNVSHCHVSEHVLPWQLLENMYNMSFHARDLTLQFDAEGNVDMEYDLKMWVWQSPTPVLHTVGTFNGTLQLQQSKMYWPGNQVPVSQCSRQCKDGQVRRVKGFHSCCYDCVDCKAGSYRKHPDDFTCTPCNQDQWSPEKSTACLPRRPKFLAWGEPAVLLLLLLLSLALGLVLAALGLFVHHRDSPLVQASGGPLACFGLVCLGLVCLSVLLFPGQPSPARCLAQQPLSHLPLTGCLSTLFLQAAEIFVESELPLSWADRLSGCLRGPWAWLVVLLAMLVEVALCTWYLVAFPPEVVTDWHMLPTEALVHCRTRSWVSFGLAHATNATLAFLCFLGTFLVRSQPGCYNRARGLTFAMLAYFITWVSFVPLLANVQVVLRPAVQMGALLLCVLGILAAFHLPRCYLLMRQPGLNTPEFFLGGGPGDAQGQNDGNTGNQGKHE
Procedure: Matched groups (six males each) of WT and line 7c mice (expressing the chimerical mhT1R3 transgene on a T1R3/α-gustducin double-null background), 3-6 months old, were fed the indicated diets for 4-6 weeks. Each genotype was tested in two groups, one on the regular diet and one on a test diet with clofibrate. An additional group of males stayed on the test diet for another 4-6 weeks, during which time they were mated with WT females to determine whether the pharmacological intervention was effective. Then the animals were allowed to recover on the regular diet for an additional 4 weeks after the end of the treatment (half-time for total sperm turnover in mice), and again were tested for their reproductive capacity, and then their tissues were analyzed. […]
We observed spermatozoa after clofibrate treatment represent cells that were able to escape the inhibition of clofibric acid, most likely due to very fast clearance and fluctuating levels in rodents. […] Therefore, we measured sperm concentration as an indicator of efficiency of the pharmacological block and to be able to determine the concentration that results in effective sterility. We analyzed testicular morphology, sperm production, sperm motility and sperm function in in vitro fertilization after feeding these animals with the lipid lowering drug clofibrate. […]

solubility = assay type: physicochemical
PDE 4 = settings: quantity not given; read-out: inhibition of PDE 4; cited from earlier work

OCCN(CCO)c1nc(N2CCCCC2)c2nc(N(CCO)CCO)nc(N3CCCCC3)c2n1 [Dipyridamole]
IC50 (PDE 8): 4 to 9 µM

CCOC(=O)C1=C[C@]2(CC)CCCN3CCc4c(n1c1ccccc41)[C@@H]32 [Vinpocetine]
IC50 (PDE 1): 10 µM

CCOC(=O)C(C)(C)Oc1ccc(Cl)cc1 [clofibrate]
effect on the health of the animals (humanized mhT1R3): no apparent effect | solubility (solubility): 5000 µg/mL (≈ 20.6 mM)
